This note sets out measurements from paper PMC5585294, “A potent series targeting the malarial cGMP-dependent protein kinase clears infection and blocks transmission” (Nature Communications, 2017).

In data set [1] the test system is P. falciparum Pf3D7 0087/N9. Nature of the data set: GSK P. falciparum humanized mouse model (GSKPfalcHuMouse) efficacy. To be noted: 4 days.
Text: The mice were infected with 2 × 10^7 P. falciparum Pf3D7^0087/N9-infected erythrocytes (Day 0) at ~ 40% chimerism in peripheral blood. […] AUCED90 is the average daily exposure of the compound in whole blood that reduces parasitemia at day 7 of the in vivo assay by 90% with respect to parasitemia in vehicle-treated mice.
A short description of data set [2]: Parallel artificial membrane permeability assay (PAMPA). Format: in vitro ADME. An excerpt:
Compound mlm hlm mLogD PAMPA HepG2
name (%rem) (%rem) (nm/s) (IC50 µM)
Supplementary Table 2. Compound Properties. MLM, HLM, mLogD and PAMPA . mlm

A further data set addresses T1, human MLK3 (Homo sapiens, UniProt Q16584).
T1 construct: Protein Phosphorylation Unit, Dundee (screening site)
The data set is described as follows: Human kinase panel single point screen, MLK3. Format: biochemical. To be noted: at 100 nM; highest level of inhibition in the panel. An excerpt: The results are expressed as % inhibition of kinase activity.
(1 picture or pasted object on this page, not shown here)

For data set [3], the system named is P. falciparum wild-type (3D7) stage V gametocytes. The data set is described as follows: Gametogenesis (rounding up) assay, wild-type 3D7 stage V gametocytes. Format: cell-based, Plasmodium falciparum. The note with it: 30 µM xanthurenic acid; 2 µM ML1, 1 µM ML10. How it is done: Plasmodium falciparum clone 3D7A (obtained from Dr Lisa Ranford-Cartwright, University of Edinburgh) gametocytes were initiated and cultured using an adapted version of the traditional Trager and Jenson method modified by Fivelman and colleagues. Stage V gametocytes were purified on a 60% Percoll gradient. Purified parasite samples were diluted in warm complete media (RPMI-1640 (Sigma), 0.5% Albumax (Invitrogen), 0.03% L-glutamine (Sigma), 0.2% Glucose (Sigma), 1× hypoxanthine (Sigma)), to a volume that would allow a final volume of […] per sample and a haematocrit of <10%. […] Control tubes containing DMSO only were kept at 37 °C. All other samples were incubated at room temperature for 30 min immediately after addition of test compounds. Samples were then washed once in warm RPMI followed by removal of the supernatant to leave a final haematocrit of roughly 50%. Samples were smeared on glass slides and fixed in 100% methanol (VWR) then stained for 15 min in 10% Giemsa R66 (VWR) and observed by light microscopy. The number of gametocytes at stage V and rounded up per 900 erythrocytes were counted three consecutive times to produce an average count. Numbers of parasites rounded up were compared to the no drug control.

Data set [4] is described as follows: Plasma levels in satellite groups of mice, P. berghei experiment. Format: in vivo, mouse. The note with it: BALB/c, mouse, in vivo, po, 25 mg/kg. An excerpt:
Supplementary Figure 4. Plasma concentrations over time in rodent malaria models. […] Error bars show the standard deviation. (1 picture or pasted object on this page, not shown here)

T1 sequence (Q16584 whole entry): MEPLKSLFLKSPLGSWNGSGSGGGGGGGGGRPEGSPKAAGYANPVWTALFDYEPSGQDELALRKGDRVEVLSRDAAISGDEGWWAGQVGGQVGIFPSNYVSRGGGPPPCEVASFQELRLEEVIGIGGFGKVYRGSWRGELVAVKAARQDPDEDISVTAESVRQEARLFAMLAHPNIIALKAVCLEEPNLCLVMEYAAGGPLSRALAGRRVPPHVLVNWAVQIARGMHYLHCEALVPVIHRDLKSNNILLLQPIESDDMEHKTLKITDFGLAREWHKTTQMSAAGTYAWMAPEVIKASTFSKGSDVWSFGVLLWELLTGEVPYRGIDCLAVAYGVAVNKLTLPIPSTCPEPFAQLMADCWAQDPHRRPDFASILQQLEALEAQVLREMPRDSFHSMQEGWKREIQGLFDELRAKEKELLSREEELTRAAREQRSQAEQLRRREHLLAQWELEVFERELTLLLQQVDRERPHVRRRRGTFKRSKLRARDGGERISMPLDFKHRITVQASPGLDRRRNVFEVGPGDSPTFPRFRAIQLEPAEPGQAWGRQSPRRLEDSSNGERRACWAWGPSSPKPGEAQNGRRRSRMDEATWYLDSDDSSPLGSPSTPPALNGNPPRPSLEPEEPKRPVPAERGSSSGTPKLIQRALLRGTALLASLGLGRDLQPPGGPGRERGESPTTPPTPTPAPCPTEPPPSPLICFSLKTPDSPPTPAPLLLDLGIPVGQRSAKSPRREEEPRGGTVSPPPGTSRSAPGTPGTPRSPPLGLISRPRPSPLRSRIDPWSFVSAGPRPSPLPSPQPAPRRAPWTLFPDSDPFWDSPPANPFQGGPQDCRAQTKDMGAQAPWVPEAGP

For orientation: Papp means the rate of passage across a membrane or cell layer, normalised by area and donor concentration. Usually inhibition stands for the drop in the measured response relative to a control, in per cent. A high value points to strong suppression. What is called half-life is the time in which the quantity being followed falls by half. A high value points to slow loss. `Cc1cn2c(-c3ccnc(NCC4CC4)n3)c(-c3ccc(F)c(NS(C)(=O)=O)c3)nc2cc1CN(C)C` [ML10]: in data set [1] (100 mg/kg twice daily oral), the “parasitaemia at the end of the treatment” value was “not detectable”. In addition, in data set [1] (50 or 100 mg/kg twice daily oral), the effect on parasitaemia entry was “dramatically reduced parasitaemia”. This compound gave a Papp in data set [2] of 8.16 ×10⁻⁶ cm/s. The compound also registered an inhibition at 0.1 µM against human MLK3 of 40%. In addition, the “rounding up of wild-type gametocytes” value in data set [3] is “blocked rounding up”. Also, in data set [4], the half-life was 48 min.
